Laboratory results reported in ChEMBL document CHEMBL1201862, “PubChem BioAssay data set” (2004).
Activity calls are given as the source filed them. Cut-off read from the data, not from the text of the source, for most assays here: actives have a measured EC50 and inactives only a lower limit.

Experiments:
[1] = P. falciparum Dd2 growth inhibitors, dose response, SYBR Green, cherry-picked samples (AID 1159567); format: functional, cell-based
[2] = biological target: T1, Carboxy-terminal domain RNA polymerase II polypeptide A small phosphatase 1 (Homo sapiens, UniProt Q9GZU7); experiment: CTDSP1 inhibitors, concentration-response, biochemical, absorbance readout, ultra-high-throughput screen actives (AID 540297); format: functional
T1 sequence (Q9GZU7 whole entry): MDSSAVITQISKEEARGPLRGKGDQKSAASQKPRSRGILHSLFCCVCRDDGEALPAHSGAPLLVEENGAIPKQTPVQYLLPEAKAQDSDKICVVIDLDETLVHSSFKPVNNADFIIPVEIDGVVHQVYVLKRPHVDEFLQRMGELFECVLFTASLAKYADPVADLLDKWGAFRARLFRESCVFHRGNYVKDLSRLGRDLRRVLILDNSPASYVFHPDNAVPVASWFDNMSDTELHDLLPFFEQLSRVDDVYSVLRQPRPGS

[3] = biological target: T2, Heat shock factor protein 1 (Mus musculus, UniProt P38532); experiment: enhancement of HSF1-driven luciferase signal – cell-based, NIH3T3, luminescence, dose retest, confirmation (AID 435004); format: functional;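 note: stress induced by proteasome inhibitor MG132 added 30 min after compound; luciferase reporter driven by HSF1 response element in NIH3T3 cells; actives raise luminescence as potentiators of the MG132 stress response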
T2 sequence (P38532 whole entry): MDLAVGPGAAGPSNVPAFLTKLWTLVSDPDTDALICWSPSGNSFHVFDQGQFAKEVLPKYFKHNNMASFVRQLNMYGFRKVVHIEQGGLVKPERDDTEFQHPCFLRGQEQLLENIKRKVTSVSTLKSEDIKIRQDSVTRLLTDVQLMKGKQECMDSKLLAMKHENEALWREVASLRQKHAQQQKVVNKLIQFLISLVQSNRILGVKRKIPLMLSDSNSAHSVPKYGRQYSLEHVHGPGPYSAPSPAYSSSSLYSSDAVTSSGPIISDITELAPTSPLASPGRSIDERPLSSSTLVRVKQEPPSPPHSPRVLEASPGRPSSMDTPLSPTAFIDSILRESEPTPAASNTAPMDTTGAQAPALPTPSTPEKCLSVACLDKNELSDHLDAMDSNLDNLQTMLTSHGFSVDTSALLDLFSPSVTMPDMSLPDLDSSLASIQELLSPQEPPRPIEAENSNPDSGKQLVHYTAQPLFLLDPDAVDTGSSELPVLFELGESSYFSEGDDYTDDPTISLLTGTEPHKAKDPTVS

[4] = fluconazole-exposed Candida albicans growth modulators – fluorescence, retest, confirmation (AID 2467); format: functional, cell-based
[5] = Trypanosoma cruzi growth suppression in host cells – NIH3T3 host cells, beta-gal luminescence, confirmation (AID 2044); format: functional, cell-based;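 note: intracellular parasites grown in NIH/3T3 mouse fibroblasts as host cells; luminescent beta-galactosidase reporter signal from transgenic T. cruzi replicating inside host cells; inhibitors lower the luminescence signal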
[6] = NIH3T3 cell viability loss – ATP luminescence, mouse fibroblasts, counter-screen, dose response (AID 2010); format: functional, cell-based;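 note: cells exposed to compound for about 90 hours before reading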
[7] = NIH-3T3 fibroblast cytotoxicity, dose response, cytotoxicity control, cell-based, fluorescence, Alamar Blue, secondary assay (AID 2327); format: functional;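 note: NIH-3T3 mouse fibroblasts cultured with fluconazole at 8 µg/mL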
[8] = system: H4; experiment: Luminescence Cell-Based Dose Response HTS to Identify Activators of 5'UTR Stem-Loop Driven Prion Protein mRNA Translation in H4 Neuroglioblastoma Cells. [Related pubchem assays: 1829 (Project Summary), 1814 (Primary HTS)]; format: functional; details: Homo sapiens
[9] = biological target: T3, Protein RecA (Mycobacterium tuberculosis, UniProt P9WHJ3); experiment: Fluorescence Cell-Free Homogeneous Dose Retest to Identify Inhibitors of RecA-Intein Splicing Activity. [Related pubchem assays (depositor defined):AID2097, AID2223, AID489010, AID492950]; format: functional
T3 sequence (P9WHJ3 whole entry): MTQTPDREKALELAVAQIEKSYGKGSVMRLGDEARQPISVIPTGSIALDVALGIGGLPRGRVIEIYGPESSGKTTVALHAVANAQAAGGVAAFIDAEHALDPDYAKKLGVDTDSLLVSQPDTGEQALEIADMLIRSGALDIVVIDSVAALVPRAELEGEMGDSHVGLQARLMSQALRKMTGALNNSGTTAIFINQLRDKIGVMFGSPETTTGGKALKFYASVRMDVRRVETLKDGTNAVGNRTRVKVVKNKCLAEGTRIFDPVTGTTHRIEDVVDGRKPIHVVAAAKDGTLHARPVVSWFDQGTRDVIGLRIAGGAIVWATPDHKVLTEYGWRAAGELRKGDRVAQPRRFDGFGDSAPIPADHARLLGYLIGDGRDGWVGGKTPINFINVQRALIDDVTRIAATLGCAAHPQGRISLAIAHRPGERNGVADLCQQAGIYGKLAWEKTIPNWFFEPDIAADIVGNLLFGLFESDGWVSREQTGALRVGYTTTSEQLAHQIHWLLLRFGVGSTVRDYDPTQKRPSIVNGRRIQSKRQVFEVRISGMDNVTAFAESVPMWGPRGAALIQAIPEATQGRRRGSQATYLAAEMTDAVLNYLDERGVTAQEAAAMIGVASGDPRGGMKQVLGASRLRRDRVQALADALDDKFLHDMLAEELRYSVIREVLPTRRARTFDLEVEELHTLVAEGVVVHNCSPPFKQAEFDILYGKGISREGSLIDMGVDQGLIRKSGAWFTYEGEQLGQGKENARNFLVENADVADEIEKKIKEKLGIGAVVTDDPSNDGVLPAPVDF

[10] = Luminescence Cell-Based Dose Confirmation HTS to Identify Activators of 5'UTR Stem-Loop Driven Alpha-Synuclein mRNA Translation in H4 Neuroglioblastoma Cells. [Related pubchem assays: 1829 (Project Summary), 1814 (Primary HTS)]; format: functional
[11] = Luminescence Cell-Based Dose Response HTS to Identify Activators of Luciferase Translation or Activity in H4 […] Cells. [Related pubchem assays: 1829 (Project Summary), 1814 (Primary HTS)]; format: functional
[12] = biological target: T4, Replicative DNA helicase DnaB (Mycobacterium tuberculosis, UniProt P9WMR3); experiment: DnaB intein splicing inhibitors, dose response, biochemical, cell-free fluorescence (AID 449749); format: functional
T4 sequence (P9WMR3 whole entry): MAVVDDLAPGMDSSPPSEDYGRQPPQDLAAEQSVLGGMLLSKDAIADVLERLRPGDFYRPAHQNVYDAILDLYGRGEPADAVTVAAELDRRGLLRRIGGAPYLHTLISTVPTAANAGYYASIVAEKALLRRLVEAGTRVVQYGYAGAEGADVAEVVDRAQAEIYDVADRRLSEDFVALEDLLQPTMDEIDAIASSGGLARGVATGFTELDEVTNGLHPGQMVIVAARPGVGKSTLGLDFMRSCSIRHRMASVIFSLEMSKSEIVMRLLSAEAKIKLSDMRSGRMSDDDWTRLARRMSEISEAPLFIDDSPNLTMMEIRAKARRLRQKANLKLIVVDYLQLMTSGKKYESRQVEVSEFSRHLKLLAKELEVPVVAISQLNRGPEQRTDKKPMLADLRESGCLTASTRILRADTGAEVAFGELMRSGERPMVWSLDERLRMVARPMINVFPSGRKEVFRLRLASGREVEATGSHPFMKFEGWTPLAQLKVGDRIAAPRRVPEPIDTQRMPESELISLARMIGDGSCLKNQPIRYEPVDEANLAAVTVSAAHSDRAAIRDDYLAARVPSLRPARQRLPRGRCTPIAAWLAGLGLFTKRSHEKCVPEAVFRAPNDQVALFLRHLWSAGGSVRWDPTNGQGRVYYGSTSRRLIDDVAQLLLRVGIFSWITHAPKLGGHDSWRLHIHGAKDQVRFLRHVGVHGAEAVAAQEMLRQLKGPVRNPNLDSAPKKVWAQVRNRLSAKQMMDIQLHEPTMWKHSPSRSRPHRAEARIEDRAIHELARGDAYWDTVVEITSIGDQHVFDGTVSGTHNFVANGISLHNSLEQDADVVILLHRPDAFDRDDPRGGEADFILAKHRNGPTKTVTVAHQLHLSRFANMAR

[13] = non-specific 3'UTR reporter inhibition in Clone20-Shn3RL – cell-based, Renilla luciferase, cherry-picked, counter-screen for Shn3 inhibitor project, dose response (AID 624133); format: functional
[14] = loss of viability in HepG2 cells – cell-based, CellTiter-Glo, cherry-picked, cytotoxicity control for Shn3 inhibitor project, dose response (AID 624134); format: functional
[15] = biological target: Cytochrome P450 2D6 (Homo sapiens, UniProt P10635);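 note: CYP2D6 member of a cytochrome P450 panel assay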
[16] = system: BJ; experiment: cells; format: functional, cell-based; details: Homo sapiens
[17] = system: BJ; experiment: BJ-TERT fibroblast viability loss – cell-based, RAS-independent, luminescence, dose response (AID 1933); format: functional; details: Homo sapiens
[18] = DRD fibroblast viability loss – cell-based, non-viral oncogenic, luminescence, dose response (AID 1934); format: functional; details: Homo sapiens
[19] = system: BJ; experiment: BJ-TERT-LT-ST fibroblast viability loss – cell-based, RAS-independent, luminescence, dose response (AID 1935); format: functional; details: Homo sapiens;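 note: BJ fibroblasts immortalized with TERT plus LT and ST oncogenes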

Sequence of Cytochrome P450 2D6 (P10635 whole entry): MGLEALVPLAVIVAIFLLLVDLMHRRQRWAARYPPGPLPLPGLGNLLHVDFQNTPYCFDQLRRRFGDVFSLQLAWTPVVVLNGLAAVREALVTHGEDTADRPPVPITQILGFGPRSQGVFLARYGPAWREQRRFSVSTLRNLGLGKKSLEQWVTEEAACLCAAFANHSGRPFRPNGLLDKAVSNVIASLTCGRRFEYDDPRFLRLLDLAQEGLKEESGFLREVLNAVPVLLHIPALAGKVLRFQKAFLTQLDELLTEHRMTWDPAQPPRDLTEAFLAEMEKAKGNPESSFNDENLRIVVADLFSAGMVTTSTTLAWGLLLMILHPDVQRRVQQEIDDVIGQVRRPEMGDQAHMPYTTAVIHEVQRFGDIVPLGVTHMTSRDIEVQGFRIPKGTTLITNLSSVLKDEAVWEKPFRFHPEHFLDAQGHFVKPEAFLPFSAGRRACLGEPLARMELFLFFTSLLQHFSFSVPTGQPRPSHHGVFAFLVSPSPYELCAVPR

COc1ccc2c3c([nH]c2c1)[C@H](CO)N(C(=O)Nc1ccc(F)cc1)CC31CCN(C(=O)c2ccccn2)CC1
AC50 [1]: 12.4 µM (active)

O=C(N/N=C/c1ccc(OC(=O)c2cccs2)cc1)c1ccc(F)cc1
IC50 [2]: > 80 µM (inactive)

Clc1ccc(SCc2csc(N3CCOCC3)n2)cc1
EC50 [3]: 51.8 µM (active)

O=C1CCCN1CCCNc1c([N+](=O)[O-])nn(-c2ccc(Cl)cc2)[n+]1[O-]
EC50 [4]: > 38 µM (not active)
EC50 [5]: 0.562 µM (active)
EC50 [6]: > 60 µM (inconclusive)
EC50 [7]: 17 µM (active)
EC50 [3]: 26.5 µM (active)

Cc1ccc(-n2nc(C)c3c2OC(N)=C(C#N)C3c2ccc(F)cc2)cc1 (configuration not stated)
EC50 [8]: > 120 µM (not active)
EC50 [9]: 6.09 µM (active)
EC50 [10]: > 120 µM (not active)
EC50 [11]: > 120 µM (not active)
AC50 [12]: 14.2 µM (active)

CCOc1cc(/C=N/NC(=O)CSc2nnc(C)s2)ccc1OCc1ccccc1Cl
IC50 [2]: 10.1 µM (active)

Cc1ccc(NC(=O)CN(C)C(=O)COc2cc(F)ccc2[N+](=O)[O-])cc1
AC50 [13]: 16.2 µM (active)
AC50 [14]: > 70 µM (inactive)

Fc1ccc(NC(S)=Nc2cc(Cl)ccc2Cl)cc1
EC50 [3]: > 260 µM (inactive)

C/C=C/c1ccc2c(c1)[C@@H]1[C@@H](CCN1C(=O)C1CCCC1)[C@H](CO)N2
AC50 [1]: 12.7 µM (active)

COc1cc(NC(=O)Cc2cccs2)ccc1-n1cnnn1
EC50 [3]: > 260 µM (inactive)

O=C(c1ccc(F)cc1)N1CC(=O)N2[C@H](CO)[C@@H](c3ccc(C#Cc4ccc(F)cc4)cc3)[C@@H]2C1
AC50 [1]: 5.03 µM (active)

S=C(Nc1ccccc1)Nc1ccc(Cl)cn1
EC50 [3]: > 260 µM (inactive)

Nc1nc(Br)c2c(F)cccc2c1-c1ccc(Cl)cc1
AC50 [15]: 3.16 µM (inconclusive)
EC50 [3]: > 260 µM (inactive)

COc1ccc(C(=O)C2C(c3ccc(-c4ccccc4[N+](=O)[O-])o3)NC(=O)NC2(O)C(F)(F)F)cc1 (configuration not stated)
EC50 [9]: 21.5 µM (active)
AC50 [12]: 14.6 µM (active)

CC(C)Oc1cccc(C(=O)C2CCCN(C(=O)c3csnn3)C2)c1 (configuration not stated)
EC50 [9]: > 380 µM (inactive)
AC50 [12]: > 380 µM (inactive)

COc1ccc(NC(=O)N(C)C[C@H]2Oc3ccc(NC(=O)Nc4ccc(C(F)(F)F)cc4)cc3CC(=O)N([C@H](C)CO)C[C@@H]2C)cc1
AC50 [1]: 3.41 µM (active)

CCC1=Nc2cc(C(=O)O)ccc2Sc2ccc(Cl)cc21
EC50 [16]: > 150 µM (not active)
EC50 [17]: > 150 µM (not active)
EC50 [18]: > 150 µM (not active)
EC50 [19]: > 150 µM (not active)

C/C(CC(=O)Nc1cccnc1)=N\NC(=O)c1ccc([N+](=O)[O-])c(Cl)c1
EC50 [9]: 4.18 µM (active)
AC50 [12]: 20.4 µM (active)

CCCn1c(SCC(=O)c2cc(OC)ccc2OC)nnc1C(C)C
EC50 [3]: 62.4 µM (active)

Cn1c(SCC(=O)NC(=O)NCc2ccco2)nnc1-c1ccccc1
IC50 [2]: 6.39 µM (active)

CCCN1C[C@@H](C)[C@H](OC)CN(C)C(=O)c2ccc(NC(=O)c3ccc4c(c3)OCO4)cc2OC[C@H]1C
AC50 [1]: 3.45 µM (active)

CC(O)/C=C/c1cccc[n+]1C (configuration not stated)
IC50 [2]: 12.2 µM (active)

Cc1nn(-c2ccccc2)c2c1C(c1ccco1)C(C#N)=C(N)O2 (configuration not stated)
EC50 [9]: 4.03 µM (active)
AC50 [12]: 5.88 µM (active)

Cc1cc(C)c2nc3sc(C(=O)N4CCOCC4)c(N)c3cc2c1
EC50 [16]: 2.64 µM (active)
EC50 [17]: 2.52 µM (active)
EC50 [18]: 2.62 µM (active)
EC50 [19]: 26 µM (active)

Cc1ccc(NC(=O)c2cnc(SCC(=O)NCC3CCCO3)n(C)c2=O)cc1 (configuration not stated)
EC50 [9]: 30.9 µM (active)
AC50 [12]: 10.1 µM (active)

CCCc1n(CC(O)COC2CCCCC2)c2ccccc2[n+]1C (configuration not stated)
IC50 [2]: 14.3 µM (active)

CCOC(=O)CSCC(=O)N1N=C(c2cccs2)CC1c1ccc(F)cc1 (configuration not stated)
EC50 [9]: 15.1 µM (active)
AC50 [12]: 17.7 µM (active)

O=C(COc1ccc(-n2cnnn2)cc1)Nc1cccc(Cl)c1Cl
IC50 [2]: 6.36 µM (active)

c1ccc(CN2C[C@@H]3N[C@H](C2)[C@H]3c2ccc(-c3ccncc3)cc2)cc1
AC50 [1]: 9.92 µM (active)

CC1CCC(NC(=O)Cn2c(=O)oc3cc(S(=O)(=O)N4CCCC4)ccc32)CC1 (configuration not stated)
IC50 [2]: 25.5 µM (active)
